Values joined by “and” are separate entries in the source; they are usually repeats but may differ in a detail not shown here. Equal entries are not always repeated. Inconclusive results and toxic doses are left out. The calls were made as follows: active = survival T/C of 150% or more; inactive = T/C below 125% in these data.
Tested on: P388 leukemia ip, CD2F1 mice, survival T/C
Experiment: NCI In Vivo Anticancer Drug Screen. Data for tumor model P388 Leukemia (intraperitoneal) in CD2F1 (CDF1) mice
Conditions: endpoint: median survival time, higher = longer survival
How it was run: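 Mice carrying the transplanted tumor received test compound or vehicle. Survival was recorded in each group, and the value is the treated-group measurement divided by that of the vehicle-treated control group.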

[1] = dose: 25.0 mg/kg/injection, schedule: Q01DX009 (ip), vehicle: saline with Tween-80
[2] = dose: 50.0 mg/kg/injection, schedule: Q01DX009 (ip), vehicle: saline with Tween-80
[3] = dose: 100.0 mg/kg/injection, schedule: Q01DX009 (ip), vehicle: saline with Tween-80
[4] = dose: 200.0 mg/kg/injection, schedule: Q01DX009 (ip), vehicle: saline with Tween-80
[5] = dose: 50.0 mg/kg/injection, schedule: Q01DX009 (ip), vehicle: Klucel (hydroxypropylcellulose) (HPC)
[6] = dose: 100.0 mg/kg/injection, schedule: Q01DX009 (ip), vehicle: Klucel (hydroxypropylcellulose) (HPC)
[7] = dose: 200.0 mg/kg/injection, schedule: Q01DX009 (ip), vehicle: Klucel (hydroxypropylcellulose) (HPC)
[8] = dose: 25.0 mg/kg/injection, schedule: Q01DX009 (ip), vehicle: saline
[9] = dose: 50.0 mg/kg/injection, schedule: Q01DX009 (ip), vehicle: saline
[10] = dose: 100.0 mg/kg/injection, schedule: Q01DX009 (ip), vehicle: saline
[11] = dose: 200.0 mg/kg/injection, schedule: Q01DX005 (ip), vehicle: saline with Tween-80
[12] = dose: 50.0 mg/kg/injection, schedule: Q01DX001 (ip), vehicle: Klucel (hydroxypropylcellulose) (HPC)
[13] = dose: 100.0 mg/kg/injection, schedule: Q01DX001 (ip), vehicle: Klucel (hydroxypropylcellulose) (HPC)
[14] = dose: 25.0 mg/kg/injection, schedule: Q01DX001 (ip), vehicle: Klucel (hydroxypropylcellulose) (HPC)

Measured: T/C

O=C(N/N=C/c1cc(Cl)ccc1O)C(=O)N/N=C/c1cc(Cl)ccc1O
inactive: dose: 50.0 mg/kg/injection, schedule: Q01DX009 (ip), vehicle: water 92 % of control | dose: 100.0 mg/kg/injection, schedule: Q01DX009 (ip), vehicle: water 92 % of control | dose: 200.0 mg/kg/injection, schedule: Q01DX009 (ip), vehicle: water 100 % of control

COc1ccc(N2C(=O)CC(n3ccccc3=O)C2=O)cc1 (stereo unspecified)
inactive: dose: 100.0 mg/kg/injection, schedule: Q04DX002 (ip), vehicle: saline with Tween-80 100 % of control | dose: 200.0 mg/kg/injection, schedule: Q04DX002 (ip), vehicle: saline with Tween-80 99 % of control | dose: 400.0 mg/kg/injection, schedule: Q04DX002 (ip), vehicle: saline with Tween-80 101 % of control

CCOC(=O)c1ccccc1NC(=O)c1ccccc1
inactive: [1] 93 % of control | [2] 94 % of control | [3] 103 % of control | [4] 111 % of control

COC(=O)/C=C1\C(=O)OC(C)(C)C1(C)C
inactive: [5] 111 % of control | [6] 100 % of control | [7] 103 % of control

COC(=O)C1=C(O)C(C(=O)OC)=C2C1=C(C(=O)OC)C(=O)C2C(=O)OC (stereo unspecified)
inactive: dose: 50.0 mg/kg/injection, schedule: Q01DX005 (ip), vehicle: water 97 % of control | dose: 100.0 mg/kg/injection, schedule: Q01DX005 (ip), vehicle: water 98 % of control | dose: 200.0 mg/kg/injection, schedule: Q01DX005 (ip), vehicle: water 95 % of control

O=C1/C(=C/c2ccc(F)cc2)SC(=S)N1c1ccc(Cl)c(Cl)c1
inactive: [8] 91 % of control and 95 % of control | [9] 104 % of control and 91 % of control and 94 % of control | [10] 100 % of control and 94 % of control | dose: 200.0 mg/kg/injection, schedule: Q01DX009 (ip), vehicle: saline 108 % of control and 124 % of control and 91 % of control

CN(C)c1ccc(/C=C2\C=Cc3ccccc32)cc1Cl
inactive: dose: 6.25 mg/kg/injection, schedule: Q01DX009 (ip), vehicle: saline 101 % of control | dose: 12.5 mg/kg/injection, schedule: Q01DX009 (ip), vehicle: saline 87 % of control | [8] 94 % of control | [9] 94 % of control

CN1CCC(c2ccccc2)=C(Br)C1
inactive: dose: 60.0 mg/kg/injection, schedule: Q01DX005 (ip), vehicle: saline 102 % of control | dose: 120.0 mg/kg/injection, schedule: Q01DX005 (ip), vehicle: saline 98 % of control

CCC[CH2][Pb]([CH2]CCC)([O]C(C)=O)[O]C(C)=O
inactive: dose: 1.56 mg/kg/injection, schedule: Q04DX003 (ip), vehicle: saline 114 % of control | dose: 3.13 mg/kg/injection, schedule: Q04DX003 (ip), vehicle: saline 118 % of control | dose: 6.25 mg/kg/injection, schedule: Q04DX003 (ip), vehicle: saline 120 % of control

OC1CC2c3ccccc3C1C1CCCCN21 (stereo unspecified)
inactive: dose: 12.5 mg/kg/injection, schedule: Q04DX002 (ip), vehicle: saline 106 % of control | dose: 25.0 mg/kg/injection, schedule: Q04DX002 (ip), vehicle: saline 109 % of control | dose: 50.0 mg/kg/injection, schedule: Q04DX002 (ip), vehicle: saline 106 % of control

CCOC(=O)CC1CCCN1 (stereo unspecified)
inactive: dose: 25.0 mg/kg/injection, schedule: Q01DX005 (ip), vehicle: saline 110 % of control | dose: 50.0 mg/kg/injection, schedule: Q01DX005 (ip), vehicle: saline 101 % of control | dose: 100.0 mg/kg/injection, schedule: Q01DX005 (ip), vehicle: saline 97 % of control | dose: 200.0 mg/kg/injection, schedule: Q01DX005 (ip), vehicle: saline 106 % of control

CC(C)(C)C(=O)CC(=O)C(F)(F)C(F)(F)C(F)(F)F.CC(C)(C)C(=O)CC(=O)C(F)(F)C(F)(F)C(F)(F)F.CC(C)(C)C(=O)CC(=O)C(F)(F)C(F)(F)C(F)(F)F.[Eu]
inactive: dose: 60.0 mg/kg/injection, schedule: Q01DX005 (ip), vehicle: Klucel + Tween-80 99 % of control | dose: 120.0 mg/kg/injection, schedule: Q01DX005 (ip), vehicle: Klucel + Tween-80 98 % of control | dose: 240.0 mg/kg/injection, schedule: Q01DX005 (ip), vehicle: Klucel + Tween-80 98 % of control

Nc1ccc2c(=O)[nH]cnc2c1
inactive: dose: 12.0 mg/kg/injection, schedule: Q01DX005 (ip), vehicle: Klucel (hydroxypropylcellulose) (HPC) 101 % of control | dose: 25.0 mg/kg/injection, schedule: Q01DX005 (ip), vehicle: Klucel (hydroxypropylcellulose) (HPC) 108 % of control | dose: 50.0 mg/kg/injection, schedule: Q01DX005 (ip), vehicle: Klucel (hydroxypropylcellulose) (HPC) 106 % of control and 116 % of control | dose: 100.0 mg/kg/injection, schedule: Q01DX005 (ip), vehicle: Klucel (hydroxypropylcellulose) (HPC) 104 % of control

CN(C(=S)SSC(=S)N(C)c1ccccc1)c1ccccc1
inactive: dose: 25.0 mg/kg/injection, schedule: Q01DX009 (ip), vehicle: Klucel (hydroxypropylcellulose) (HPC) 91 % of control | [5] 93 % of control | [6] 97 % of control | [7] 101 % of control

Nc1nc2ccc(Br)cc2s1
inactive: dose: 50.0 mg/kg/injection, schedule: Q01DX009 (ip), vehicle: suspension in saline 97 % of control | [10] 86 % of control | dose: 100.0 mg/kg/injection, schedule: Q01DX009 (ip), vehicle: suspension in saline 102 % of control

CCOc1ccc2nc3cc(N=Nc4c(C)c(CN(CC)CC)cc(C)c4O)ccc3c(N)c2c1
inactive: [2] 108 % of control | [3] 100 % of control | [4] 106 % of control

O=C1CCCOCCCOCCCOCCCOCCCOCCC1
inactive: dose: 50.0 mg/kg/injection, schedule: Q01DX005 (ip), vehicle: saline with Tween-80 103 % of control | dose: 100.0 mg/kg/injection, schedule: Q01DX005 (ip), vehicle: saline with Tween-80 100 % of control | [11] 100 % of control

CC(C)(C)C#CP(=O)(C#CC(C)(C)C)C#CC(C)(C)C
inactive: [12] 97 % of control | [13] 99 % of control | dose: 200.0 mg/kg/injection, schedule: Q01DX001 (ip), vehicle: Klucel (hydroxypropylcellulose) (HPC) 95 % of control

C1[Se]CC12C[Se]C2
inactive: dose: 20.0 mg/kg/injection, schedule: Q01DX009 (ip), vehicle: saline with Tween-80 105 % of control

CC(C)C(N)C(=O)O (stereo unspecified)
inactive: [5] 100 % of control | [6] 100 % of control | [7] 91 % of control

CCOC(=O)CCC1CCCCC1=O (stereo unspecified)
inactive: [2] 103 % of control | [3] 93 % of control | [4] 103 % of control

Cc1ccc2c(C(=O)O)cc(-c3ccc4c(c3)OCO4)nc2c1
inactive: [5] 98 % of control | [6] 98 % of control | [7] 106 % of control

O=C1NC(=O)C2(CCCC2=Nc2ccc(Br)cc2)C2C=CN(Cc3ccccc3)C=C12 (stereo unspecified)
inactive: dose: 25.0 mg/kg/injection, schedule: Q04DX003 (ip), vehicle: saline 107 % of control | dose: 50.0 mg/kg/injection, schedule: Q04DX003 (ip), vehicle: saline 107 % of control | dose: 100.0 mg/kg/injection, schedule: Q04DX003 (ip), vehicle: saline 105 % of control and 110 % of control | dose: 200.0 mg/kg/injection, schedule: Q04DX003 (ip), vehicle: saline 107 % of control

Cc1ccc(S(=O)(=O)C23N=NC(C)(C)C2C2CCC3C2)cc1 (stereo unspecified)
inactive: dose: 60.0 mg/kg/injection, schedule: Q01DX005 (ip), vehicle: Klucel (hydroxypropylcellulose) (HPC) 102 % of control | dose: 120.0 mg/kg/injection, schedule: Q01DX005 (ip), vehicle: Klucel (hydroxypropylcellulose) (HPC) 104 % of control | dose: 240.0 mg/kg/injection, schedule: Q01DX005 (ip), vehicle: Klucel (hydroxypropylcellulose) (HPC) 102 % of control

COc1ccc2c(c1)C1(C)CC(OC1=O)C2=O (stereo unspecified)
inactive: [14] 99 % of control | [12] 100 % of control | [13] 100 % of control

Cc1cccc(/C=N/Nc2nc3ccccc3s2)n1
inactive: dose: 6.25 mg/kg/injection, schedule: Q01DX005 (ip), vehicle: saline with Tween-80 90 % of control | dose: 12.5 mg/kg/injection, schedule: Q01DX005 (ip), vehicle: saline with Tween-80 89 % of control | [11] 99 % of control

CCOC(=O)/N=[N+](\[O-])c1ccc(Br)cc1
inactive: dose: 12.5 mg/kg/injection, schedule: Q01DX001 (ip), vehicle: Klucel (hydroxypropylcellulose) (HPC) 109 % of control | [14] 115 % of control | [12] 103 % of control

CN(C)CCCC1(c2ccccc2)SC(C)(C)c2ccc(Cl)cc21 (stereo unspecified)
inactive: [14] 102 % of control | [12] 100 % of control

CC12CC3(C)CC(C)(C1)CC(C(NC(C)(C)C)C(=O)O)(C2)C3 (stereo unspecified)
inactive: [1] 100 % of control | [2] 100 % of control and 105 % of control and 122 % of control | [3] 99 % of control and 110 % of control and 96 % of control | [4] 99 % of control

Source: PubChem BioAssay AID330 (DTP/NCI, 2004)
